Laboratory results as given in patent US20160129078A1, “Rhomboid Proteins and Uses Thereof” (Queen's University at Kingston, priority 2014, published 2016).

Legend:
[1] = tested on: ampicillin resistant E. coli; assay: Sensitization of bacteria to ampicillin by exogenous rhomboid protein; assay type: cell-based, Escherichia coli
Experimental: Experiments were conducted to assess the ability of At1g74130 proteins or variants to sensitize bacteria to the antibiotic ampicillin, using “super-resistant” E. coli (multi-copy pET20b plasmid-based ampicillin-resistant lab strains). This model is considered the so-called “SuperBug” model, as commonly referred to in the public domain and media.
Control assays were conducted on cells without added At1g74130 or variants (sensitizing variants) to determine the delivery system to use and the appropriate levels of ampicillin to use. Control assays were also conducted to determine if the 5% (v/v) DMSO delivery system exerted any effects. Bacterial cells, usually 800-1000, were mock treated with Luria Broth (LB) media or 5% (v/v) DMSO for 15 minutes prior to exposure to a 30-45 minute exposure to ampicillin (1.25 mg/ml or 1.5 mg/ml). Total volumes of 200 μl were used in these assays. The treated-exposed cells were then plated onto non-selective LB agar plates and allowed to grow overnight to assess the level of cell death or susceptibility to ampicillin. The ampicillin range found useful for these assays was between 1.25 mg/ml to 1.5 mg/ml. This range mirrored the observations reported in an earlier section above with transgenic bacterial cells and ampicillin susceptibility. […]

[2] = tested on: yeast; assay: Sensitization of yeast to fungicidal agents AmB and Nys; assay type: cell-based, Saccharomyces cerevisiae; conditions: for yeast cell survival, fungicide alone: sub-lethal levels (1% AmB, 0.5% Nys), no rhomboid protein; for sensitization of yeast to antifungals AmB and Nys: exogenous protein co-delivered with sub-lethal AmB and Nys, as Example 13
Experimental: Experiments were conducted to assess the ability of the Arabidopsis At1g74130 proteins or variants to sensitize yeast to the antifungal agents Amphotericin B (AmB) and Nystatin (Nys). Overall, these assays were conducted in a manner similar to that designed for bacteria (Example 9). In addition to the components mixed with the added proteins or variants, the antifungal AmB was also utilized as part of the delivery system. The AmB drug contains small quantities of the detergent deoxycholate, which may also assist in the delivery of proteins into the cell, as well as function as a pore forming agent itself. […] The effective co-delivery sub-lethal concentrations of the two antifungal agents or protein had little or no effect when provided individually. FIGS. 17 and 18 show results of the yeast sensitivity assays for AmB and Nys. […] In FIG. 17, the “Yeast Control” bars represent yeast cells given mock treatments with culture media (YPD) alone, YPD plus 1% AmB, YPD plus 0.5% Nys, and YPD plus 1% AmB and 0.5% Nys, respectively. The “BSA Control” bars represent another set of mock treatments with yeast cells. This set utilized the same set-up as the Yeast Control set but with added control bovine serum albumin proteins (BSA) (dissolved in the elution buffer, the same buffer used for the purification of the recombinant At1g74130 rhomboid proteins or variants). These assays represent another variation of negative controls for rhomboid protein. The “Elution Control” bars represent yeast cells mock treated using the same set-up as in the Yeast Control set but with added elution buffer alone. This variation of control assays was designed to assess for potential toxic impacts when combining elution buffer and the listed drugs, as well any effects originating from components of the elution buffer itself. The composition of the elution buffer is provided above in Example 5. With the exception of Nys, these treatments represent the first step and occur for 45 minutes before the second step when exposure to fungicides takes place. Within each set of bars, where applicable, the second 15-minute step treatment occurred with a sub-lethal dose of Nys. After a total of one hour, the treated yeast cells were plated on non-selective YPD agar plates. Plates were grown 2-3 days at 27-30° C. and assessed for surviving cell numbers (measuring cell death). Images were also taken to document cell and colony growth characteristics.
In the experimental assays, the sensitizing properties of At1g74130 or variants (sensitizing variants) were tested by adding 10 ug protein (At1g74130 or variants in elution buffer) to yeast cells (300-500 cells). To reiterate in all cases, the components were added to cultures and mixed for one hour, where Nys was added and incubated for the last 15 minutes of the treatment. Pre-treatment was designed to permit AmB and At1g74130 proteins to establish and work prior to adding Nys. After the one hour incubation, 500 cells were plated on non-selective YPD agar media and grown for 48 hours at 30′C.
The sub-lethal levels of fungicides to use in these assays were determined using dosage experiments. These assays were conducted on yeast cells without added rhomboid proteins or variants. The dosages of AmB tested ranged from 0 to 5% (v/v). […] Likewise, the Nys level was determined using a range of 0.5 to 2.5%. Yeast cells were treated for one hour with fungicides in a total volume of 400 μl YPD media before plating.
Since both the AmB buffer contained small quantities of detergent (deoxycholate being the main one), an experiment was done in which different amounts (1% and 10%) of deoxycholate were added to yeast cells to ascertain any effects. Adding deoxycholate had little effect on yeast.
This set of yeast assays was conducted in the same manner described above (Example 13) and employed the same controls and combinations. […]

[3] = tested on: yeast; assay: as above; assay type: cell-based, Saccharomyces cerevisiae; conditions: range of 0 to 1% (v/v), no rhomboid protein, one hour
[4] = tested on: bacteria; assay: Sensitization of bacteria to tetracycline by exogenous rhomboid protein; assay type: cell-based, Escherichia coli; conditions: tetracycline 15 ug/ml
Experimental: Experiments were conducted to assess the ability and the utility of At1g74130 protein variants to sensitize bacteria to another antibiotic, tetracycline. In bacteria, tolerance or resistance to tetracycline is facilitated by a mechanism different from the ampicillin resistance assayed in Example 9. Unlike the breakdown of ampicillin outside the bacterial cells by secreted ampicilliase, tetracycline resistance in bacteria is based largely on the continual and effective pumping of tetracycline out of the cell by proteinaceous membrane pumps. To assess the utility of the At1g74130 for sensitizing bacteria to tetracycline, these bacterial assays were conducted in the same manner described in Example 9. The same controls and combinations were used. The final treatment level of tetracycline used in place of the ampicillin treatment was 15 ug/ml.
Experiments were conducted to assess the ability and the utility of a human rhomboid type or variant to sensitize bacteria to tetracycline. These bacterial assays were conducted in the same manner described above for the other rhomboid variants and in Example 9. The same controls and combinations were used. The At1g74130 L was the control for UBAC2 in this set of assays. The previously observed behaviours and responses were not observed for UBAC2 in this setting with the antibiotic tetracycline (FIG. 16).

CC1(C)S[C@@H]2[C@H](NC(=O)[C@H](N)c3ccccc3)C(=O)N2[C@H]1C(=O)O [ampicillin, reference compound]
effect on bacteria when provided individually ([1]; effective co-delivery concentration, without protein): no effects

C[C@@H]1[C@H](O)[C@@H](C)/C=C/C=C/C=C/C=C/C=C/C=C/C=C/[C@H](O[C@@H]2O[C@H](C)[C@@H](O)[C@H](N)[C@@H]2O)C[C@@H]2O[C@](O)(C[C@@H](O)C[C@@H](O)[C@H](O)CC[C@@H](O)C[C@@H](O)CC(=O)O[C@H]1C)C[C@H](O)[C@H]2C(=O)O [AmB, Amphotericin B, reference compound]
yeast cell survival, fungicide alone [2]: small reduction in yeast cell survival
surviving yeast colonies in dosage experiment [3]: no significant differences

C[C@@H]1[C@H](O)[C@@H](C)/C=C/C=C/CC/C=C/C=C/C=C/C=C/C(O[C@H]2O[C@H](C)[C@@H](O)[C@H](N)[C@@H]2O)CC2O[C@](O)(CC(O)C(O)CCC(O)CC(O)CC(O)CC(=O)O[C@H]1C)CC(O)C2C(=O)O (stereo partly drawn) [Nys, Nystatin, reference compound]
yeast cell survival, fungicide alone [2]: small reduction in yeast cell survival

deoxycholate
effect on yeast ([2]; 1% and 10% added to yeast cells): little effect

B1: UBAC2: human UBAC2 isoform 1, fusion between a rhomboid pseudoprotease sequence and ubiquitin-associating domains (protein, listed as Homo sapiens)
chain: MQYFFGITAASNLPSGFLAPVFALFVPFYCSIPRVQVAQILGPLSITNKTLIYILGLQLFTSGSYIWIVAISGLMSGLCYDSKMFQVHQVLCIPSWMAKFFSWTLEPIFSSSEPTSEARIGMGATLDIQRQQRMELLDRQLMFSQFAQGRRQRQQQGGMINWNRLFPPLRQRQNVNYQGGRQSEPAAPPLEVSEEQVARLMEMGFSRGDALEALRASNNDLNVATNFLLQH
sensitization of yeast to antifungals AmB and Nys [2]: increased the sensitivity
sensitization of bacteria to tetracycline [4]: not observed

B2: At1g25290 L: L-form Arabidopsis At1g25290 rhomboid protease, contains the RVL cyclin-binding domain (protein, listed as Arabidopsis thaliana)
chain: MVSVSLSHHNLWPPESGSTAFRGFATAASVHACHHVSRHLRLDFHLRSSLKKLQHFSDDARMKFARYQRVFVFNGANFLKSRVDIRLSQSSPFVCFFNGGESRLNPRGGEEGSSNPETSKRNTVNGRRWTNVLLAINVIMYIAQIASDGKVLTWGAKINSLIERGQLWRLATASVLHANPMHLMINCYSLNSIGPTAESLGGPKRFLAVYLTSAVARVLGSAMSYWFNKAPSVGASGAIFGLVGSVAVFVIRHKQMVRGGNEDLMQIAQIIALNMAMGLMSRR
sensitization of bacteria to ampicillin ([1]; exogenous protein, same manner as Example 9): no activity
sensitization of yeast to antifungals AmB and Nys [2]: no activity
